In experiment [1] the test system is bovine s.c. adipose tissue. Description: Lipolysis: NEFA release, s.c. adipose tissue explants. The class given is cell-based, bovine (Angus cross steers). To be noted: for Effect on NEFA release (in words) / NEFA: 30 min; for NEFA: s.c., mean ± SEM, baseline 0.99 ± 0.40.
In experiment [2] the test system is bovine i.m. adipose tissue. Description: Lipolysis: glycerol release, i.m. adipose tissue explants. Conditions: 30 min; for Effect on glycerol release (in words): i.m. adipose tissue; for Glycerol: i.m., mean ± SEM, baseline 48.6 ± 10.3. The class given is cell-based, bovine (Angus cross steers).
Experiment [3] has as its system bovine i.m. adipose tissue. Description: Lipolysis: NEFA release, i.m. adipose tissue explants. The class given is cell-based, bovine (Angus cross steers). To be noted: 30 min; for Effect on NEFA release (in words): i.m. adipose tissue; for NEFA: i.m., mean ± SEM, baseline 0.65 ± 0.20.
Experiment [4] deals with bovine i.m. adipose tissue. Description: cAMP in i.m. adipose tissue explants (Cyclic AMP XP Assay Kit). To be noted: for Effect on cAMP (in words): ligand alone; for Effect on cAMP (in words) / cAMP: 30 min; for cAMP: i.m., mean ± SEM, n = 6 steers, baseline 0.64 ± 0.19. The experiment is classed as cell-based, bovine (Angus cross steers). The method, then: (§1) Fresh s.c. adipose tissue was cut into small pieces (50 to 100 mg, actual weight recorded) and i.m. adipose tissue was dissected from the LM as described previously ([Smith and Crouse, 1984]; [Miller et al., 1988]) and weighed. The s.c. and i.m. adipose samples were incubated according to 3 different sets of experimental conditions. Experiment 1: Small pieces of s.c. and i.m. adipose tissues (50 to 100 mg; 1 to 2 mm thick; [Smith and Prior, 1981]) were preincubated in 6-well tissue culture plates in a CO2/O2 incubator (NuAire model 4750 CO2 incubator, Plymouth, MN) for 30 min at 37 °C, 5% CO2 in KHB plus 5 mM glucose, 10 mM HEPES, and 0.5 mM theophylline. […] Experiment 2: The s.c. and i.m. adipose samples were preincubated in KHB plus 5 mM glucose, 10 mM HEPES, and 0.5 mM theophylline in the presence or absence of either 10 µM L-748,337 (β 3-AR antagonist) or 50 µM PRO (β-AR pan-antagonist). […] After the 30 min preincubation, either DOB (β 1-AA) or SAL (β 2-AA) was added to the culture plate wells in a concentration-dependent manner (10^–9 to 10^–4 M) for an additional 30 min. For all experiments, there were at least 3 replicate wells per treatment condition. After a total of 1-hr incubation, the adipose samples were homogenized in 1 mL cell lysis buffer (Cell Signaling Technology, Danvers, MA) with 1 mM phenymethylsulfony fluoride, and centrifuged at 14,000 × g for 30 min to remove tissue debris. The supernatant fractions were stored at −80 °C until subsequent analyses were performed.
(§2) The concentration of cAMP was determined based on the principle of competitive binding using the Cyclic AMP XP Assay Kit according to the manufacturer’s instructions. Cytosolic extracts from the adipose explants were co-incubated at room temperature for 3 hr in 96-well plates with the HRP-linked cAMP substrate coated onto an immobilized rabbit monoclonal cAMP antibody using a horizontal orbital plate shaker. After the reaction, color development was measured at 450 nm using an Epoch microplate reader (Biotek Instruments, Winooski, VT). All samples were analyzed in duplicate. A standard curve and cAMP concentrations were calculated using GrapPad Prism 6.04 software (GraphPad Software Inc., San Diego, CA).

Experiment [5] relates to bovine s.c. adipose tissue. Description: Lipolysis: glycerol release, s.c. adipose tissue explants. The experiment is classed as cell-based, bovine (Angus cross steers). Conditions: for Glycerol: s.c., mean ± SEM, baseline 50.0 ± 12.8.
In experiment [6] the test system is bovine s.c. adipose tissue. Nature of the experiment: cAMP in s.c. adipose tissue explants (Cyclic AMP XP Assay Kit). The class given is cell-based, bovine (Angus cross steers). To be noted: for Effect on cAMP (in words): ligand alone; for Effect on cAMP (in words) / cAMP: 30 min; for cAMP: n = 6 steers, baseline 0.42 ± 0.06. As to the method:
as §1, §2

The next experiment has as its target T1, bovine β 1-AR (Bos taurus, UniProt Q9TT96).
T1 construct: expressed in transfected cells; host or cells: Chinese hamster ovary (CHO) cells, pcDNA3.1+ vector
Description: cAMP induction in CHO cells transfected with bovine β 1-AR construct (LANCE cAMP kit). The experiment is classed as cell-based. To be noted: 45 min, 5 mM theophylline, ND = cAMP not detected or insufficient for EC50. As to the method:
(§3) Chinese Hamster Overy cells were transfected with either the bovine β 1-, β 2-, or β 3-AR constructs in pcDNA3.1+. Expression of the β-AR was confirmed by polymerase chain reaction (PCR). Thereafter, cells were grown in DMEM/Ham’s F12 media with 10% FBS and 1% penicillin/streptomycin at 37 °C under 5% CO2. Opti-plates (Perkin Elmer, Waltham, MA) were used for all experiments. For each experiment, cells were plated into 96-well tissue culture plates at 60,000 cells per well in a volume of 100 µL media. Cells were grown for 48 hr after plating prior to ligand addition and determination of cAMP.
(§4) All samples and standards were tested in duplicate for each repetition, and 4 repetitions per cell line were performed for each potential ligand tested. Controls included no treatment (media alone), 5 mM theophylline alone (an inhibitor of phosphodiesterase), 0.1 % DMSO alone, and water alone. None of the controls differed from media alone and are thus not reported. A volume of media equal to the volume of test material to be added was removed from the well just prior to stimulation. Theophylline was added in a volume of 25 µL to obtain a final concentration of 5 mM and each test molecule was delivered in 10 µL. Cells were returned to 37 °C and allowed to incubate for 45 min before media was removed and the cells lysed in 38 µL lysis buffer A. The LANCE cAMP detection kit (AD0262E) was purchased from Perkin Elmer. The LANCE assay instructions were followed for a 40 µL reaction volume with 15 µL of cell lysate. The reaction was incubated for 20 hr prior to measuring fluorescence. A standard curve was generated with increasing concentrations of cAMP, and the linear portion of the curve was used to calculate sample cAMP concentrations.
In general terms: TR-FRET usually uses a lanthanide donor and a delayed reading to cut background.

The next experiment deals with T2, bovine β 3-AR (Bos taurus, UniProt P46626).
T2 construct: expressed in transfected cells; host or cells: Chinese hamster ovary (CHO) cells, pcDNA3.1+ vector
T2 sequence (P46626 whole entry): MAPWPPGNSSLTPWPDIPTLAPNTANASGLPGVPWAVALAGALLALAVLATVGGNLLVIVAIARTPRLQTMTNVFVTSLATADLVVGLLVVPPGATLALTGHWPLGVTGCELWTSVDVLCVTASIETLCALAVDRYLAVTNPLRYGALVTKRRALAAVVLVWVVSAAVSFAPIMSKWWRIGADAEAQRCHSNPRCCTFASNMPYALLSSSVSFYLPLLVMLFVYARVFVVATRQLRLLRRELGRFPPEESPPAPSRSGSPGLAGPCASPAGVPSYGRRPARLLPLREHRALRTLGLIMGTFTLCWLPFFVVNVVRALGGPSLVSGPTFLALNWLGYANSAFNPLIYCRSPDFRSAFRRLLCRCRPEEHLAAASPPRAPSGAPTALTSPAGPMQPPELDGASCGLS
Nature of the experiment: cAMP induction in CHO cells transfected with bovine β 3-AR construct (LANCE cAMP kit). Conditions: 45 min, 5 mM theophylline. The experiment is classed as cell-based. As to the method: as §3, §4

Where [7] appears, read: Bos taurus, sc, 0.5 h, s.c. adipose tissue, 30 min at 37 °C, n = 5.

By EC50 is commonly meant the concentration needed to bring the measured effect to its halfway point.

Each structure is given as a SMILES string. Structures can show the parent of a compound that is named as a salt.

T1 sequence (Q9TT96 whole entry): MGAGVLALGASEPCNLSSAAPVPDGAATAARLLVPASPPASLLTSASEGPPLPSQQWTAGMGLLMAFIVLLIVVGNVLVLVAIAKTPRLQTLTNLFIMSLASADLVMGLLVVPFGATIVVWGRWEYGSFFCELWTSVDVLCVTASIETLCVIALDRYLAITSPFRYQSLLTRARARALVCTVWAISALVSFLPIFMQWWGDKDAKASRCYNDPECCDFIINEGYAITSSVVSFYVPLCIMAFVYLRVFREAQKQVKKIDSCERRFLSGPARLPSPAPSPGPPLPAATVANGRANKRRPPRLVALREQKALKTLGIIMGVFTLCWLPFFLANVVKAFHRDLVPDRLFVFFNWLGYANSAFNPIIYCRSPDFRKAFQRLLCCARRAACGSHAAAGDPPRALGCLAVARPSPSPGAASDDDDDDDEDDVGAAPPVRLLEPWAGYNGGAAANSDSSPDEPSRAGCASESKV

Regarding `CC(C)NCC(O)c1ccc(O)c(O)c1` (centres unmarked) [ISO, isoproterenol hydrochloride], the EC50 in experiment [1] (setting [7]) is 180 nM; in experiment [5] (setting [7]), 5100 nM; in experiment [6] (Bos taurus, sc, 0.5 h, s.c. adipose tissue, 30 min at 37 °C, n = 5, read-out: EC50, cAMP accumulation), 220 nM. The “Effect on NEFA release (in words)” value in experiment [1] (s.c. adipose tissue) was “increased NEFA release in a dose-dependent manner”; in experiment [3], “failed to elicit a similar response curve”. Moreover, the “Effect on glycerol release (in words)” value in experiment [2] is listed as “had no effect”; in experiment [5] (s.c. adipose tissue, 30 min), “increased glycerol release in a concentration-dependent manner”. For the same compound, the “Effect on cAMP (in words)” value in experiment [4] (i.m. adipose tissue) is “not dose-dependent”; in experiment [6] (s.c. adipose tissue) it was “increased cAMP accumulation”. In addition, the “Concentration at which the cAMP response plateaus” value in experiment [6] (s.c. adipose tissue) is given as 10^–6 M.
On to `CC(CCc1ccc(O)cc1)NCC(O)c1ccc(O)cc1.Cl` (racemic) [RAC, ractopamine hydrochloride], for which the “Effect on NEFA release (in words)” value in experiment [1] (s.c. adipose tissue) and in experiment [3] was “Neither RAC nor ZIL affected cAMP production or glycerol or NEFA release” throughout. For the same compound, the NEFA in experiment [1] (10^–6 M ligand) was determined as 1.06 ± 0.13 µmol/100 mg tissue; in experiment [1] (10^–7 M ligand), 1.20 ± 0.21 µmol/100 mg tissue; in experiment [1] (10^–8 M ligand), 1.10 ± 0.15 µmol/100 mg tissue; in experiment [3] (10^–6 M ligand), 0.56 ± 0.13 µmol/100 mg tissue; in experiment [3] (10^–7 M ligand), 1.18 ± 0.50 µmol/100 mg tissue; in experiment [3] (10^–8 M ligand) it was 0.75 ± 0.21 µmol/100 mg tissue. The “Effect on glycerol release (in words)” value in experiment [2] is listed as “Neither RAC nor ZIL affected cAMP production or glycerol or NEFA release”. Moreover, the Glycerol in experiment [2] (10^–6 M ligand) is listed as 42.6 ± 11.4 nmol/100 mg tissue; in experiment [2] (10^–7 M ligand), 81.7 ± 25.5 nmol/100 mg tissue; in experiment [2] (10^–8 M ligand) it was 52.4 ± 16.4 nmol/100 mg tissue; in experiment [5] (10^–6 M ligand, 30 min) it was 63.3 ± 9.20 nmol/100 mg tissue; in experiment [5] (10^–7 M ligand, 30 min), 52.6 ± 11.1 nmol/100 mg tissue; in experiment [5] (10^–8 M ligand, 30 min), 50.3 ± 7.60 nmol/100 mg tissue. The “Effect on cAMP (in words)” value in experiment [4] (i.m. adipose tissue) and in experiment [6] (s.c. adipose tissue) was “Neither RAC nor ZIL (10^–8 to 10^–6 M) affected cAMP concentrations” in each case. Besides, the cAMP is 0.70 ± 0.18 pmol/100 mg tissue in experiment [4] (10^–6 M ligand); 0.76 ± 0.18 pmol/100 mg tissue in experiment [4] (10^–7 M ligand); 0.86 ± 0.22 pmol/100 mg tissue in experiment [4] (10^–8 M ligand); 0.44 ± 0.14 pmol/100 mg tissue in experiment [6] (s.c., 10^–6 M ligand, mean ± SEM); 0.38 ± 0.08 pmol/100 mg tissue in experiment [6] (s.c., 10^–7 M ligand, mean ± SEM); 0.39 ± 0.09 pmol/100 mg tissue in experiment [6] (s.c., 10^–8 M ligand, mean ± SEM). The EC50 on bovine β 1-AR is 2 nM; at bovine β 3-AR, 24 nM.
Consider `C[C@H](Cc1ccc(OCC(=O)O)cc1)NC[C@H](O)c1cccc(Cl)c1` [BRL-37344], for which the “Effect on NEFA release (in words)” value in experiment [1] (s.c. adipose tissue) is listed as “Neither BRL-37344 nor LUB influenced cAMP or NEFA concentrations”; in experiment [3] it was “not influenced”. The “cAMP concentration compared with explants treated with the same concentrations of LUB” value in experiment [4] (i.m. adipose tissue, 10^–6 and 10^–5 M, P < 0.05) is on record as “significantly less”. Moreover, the “Effect on cAMP (in words)” value in experiment [6] (s.c. adipose tissue) is “Neither BRL-37344 nor LUB influenced cAMP or NEFA concentrations”. In addition, the “Adipose tissue lipolytic sensitivity (−logEC50) to β-AR ligands, s.c.” value in experiment [6] (s.c., cAMP readout, mean ± SEM, n = 12 cattle, combinations: preincubation with 1 µM LUB ± 10 µM L-748,337) is reported as 7.00 ± 3.27.
Consider `CC(C)(C)NCC(O)c1ccc(O)c(CO)c1` (centres unmarked) [SAL, salbutamol sulfate], for which the “Effect on cAMP (in words)” value in experiment [4] (i.m. adipose tissue) is “without effect in i.m. adipose tissue”; in experiment [6] (s.c. adipose tissue), “increased cAMP production in s.c. adipose tissue in a dose-dependent manner”.
The matching figures for `CC(CCc1ccc(O)cc1)NCCc1ccc(O)c(O)c1` (centres unmarked) [DOB, dobutamine hydrochloride]: “without effect in i.m. adipose tissue” and “increased cAMP production in s.c. adipose tissue in a dose-dependent manner”.

Source of the values: publication PMC8326056 (Journal of Animal Science, 2021).
